Consider twelve compounds from ChEMBL document CHEMBL3875219, “Hetero-Diels-Alder approach to Bis(indolyl)methanes” (Bioorg Med Chem, 2017).

pIC50: −log10 of the molar value.

Series [1] has as its system EL4. In words: Selectivity index, ratio of IC50 for mouse S17 cells to IC50 for mouse EL4 cells. In kind it is functional.
Series [2] in a line: Cytotoxicity against mouse EL4 cells assessed as reduction in cell viability after 72 hrs by MTT assay. In kind it is functional, cell-based. To be noted: EL4, 72 h. For orientation: Tetrazolium dyes change colour on reduction, which living cells bring about.
Series [3] deals with U-937. In words: Selectivity index, ratio of IC50 for mouse S17 cells to IC50 for human U937 cells. The series is classed as functional.
For series [4], the system named is THP-1. In words: Selectivity index, ratio of IC50 for mouse S17 cells to IC50 for human THP1 cells. In kind it is functional.
Series [5] can be described thus: Cytotoxicity against human U937 cells assessed as cell viability at 100 uM after 72 hrs by MTT assay relative to control. To be noted: U-937, 72 h, read-out: Activity. In kind it is functional.
The nature of series [6]: (§1) Cytotoxicity against mouse S17 cells assessed as reduction in cell viability after 72 hrs by MTT assay. The conditions noted are these: mouse, S17 cells. The series is classed as toxicity, cell-based.
Series [7] in a line: Cytotoxicity against human THP1 cells assessed as reduction in cell viability after 72 hrs by MTT assay. To be noted: THP-1, 72 h. The series is classed as functional, cell-based.
Series [8] can be described thus: Cytotoxicity against human U937 cells assessed as reduction in cell viability after 72 hrs by MTT assay. The series is classed as functional, cell-based. To be noted: U-937, 72 h.
Series [9] in a line: Cytotoxicity against mouse S17 cells assessed as cell viability at 100 uM after 72 hrs by MTT assay relative to control. The series is classed as toxicity. To be noted: read-out: Activity.
The species entered for series [10] is Mus musculus. Described as §1. The conditions noted are these: s17. The series is classed as toxicity, cell-based.

A word on the pIC50: it is −log10 of the IC50, conventionally taken in molar units. For orientation: IC50 means the point on the concentration scale where inhibition reaches its midpoint. As to `C/C(=N/NC(=O)OC(C)(C)C)C(c1cn(Cc2ccccc2)c2ccccc12)c1cn(Cc2ccccc2)c2ccccc12`, the “Ratio IC50” value in series [1] was 1.38; in [3], <1; in series [4], <1. Moreover, the pIC50 in [2] is 5.25; in series [7], 4.41. Moreover, the viability at 100 µM in [5] amounted to 66.6%. Moreover, in series [6], the IC50 at 72 h turned out to be 7.65 µM.

For the compound `O/N=C(/c1ccc(Br)cc1)C(c1c[nH]c2ccc(Br)cc12)c1c[nH]c2ccc(Br)cc12`, the pIC50 in series [2] is 5.12; in series [7], 4.91; in series [8], 4.73.

As for `C/C(=N/NC(=O)OC(C)(C)C)C(c1c[nH]c2ccc(Br)cc12)c1c[nH]c2ccc(Br)cc12`, the “Ratio IC50” value in series [1] was found to be 1.84; in series [3], 1.46; in series [4], 1.14. The values for the pIC50 in [2], in [7] and in series [8] were 4.65, 4.44 and 4.55, respectively. Besides, in [6], the IC50 at 72 h was 41.3 µM.

As for `C/C(=N/NC(=O)OC(C)(C)C)C(c1c[nH]c2ccc(O)cc12)c1c[nH]c2ccc(O)cc12`, the “Ratio IC50” value in [1] is 6.49; in series [3] it was <1; in [4], 3.5. Besides, the pIC50 in series [2] is 4.81; in series [7] it was 4.54; in series [8], 3.80. The viability at 72 h, 100 µM in [9] came to 48.4%. Also, the IC50 result in [10] is “Non-Toxic”.

With `C/C(=N/NS(=O)(=O)c1ccc(C)cc1)C(c1c[nH]c2ccccc12)c1c[nH]c2ccccc12`, the “Ratio IC50” value is given as 1.32 in series [1], 1.09 in series [3] and 1.06 in [4]. Besides, the pIC50 in series [2] is 4.72; in [7], 4.63; in series [8], 4.64. The IC50 at 72 h in [6] came to 25 µM.

Take `C/C(=N/NC(=O)OC(C)(C)C)C(c1cn(C)c2ccccc12)c1cn(C)c2ccccc12`: the pIC50 is 5.00 in [2], 4.60 in series [7] and 4.85 in series [8].

`Cc1ccc2[nH]cc(C(/C(=N\O)c3ccc(Br)cc3)c3c[nH]c4ccc(C)cc34)c2c1`: the entries for the “Ratio IC50” value in [1], in series [3] and in series [4] were 3.56, 1.17 and 1.81, respectively. Also, the pIC50 is 5.49 in [2], 5.20 in series [7] and 5.01 in series [8]. In addition, in series [6], the IC50 at 72 h worked out at 11.5 µM.

In the case of `C/C(=N/NC(=O)OC(C)(C)C)C(c1c[nH]c2ccccc12)c1c[nH]c2ccccc12`, the results for the “Ratio IC50” value in [1], in [3] and in [4] were 3.27, 2 and 1.67, respectively. For the same compound, the pIC50 was 4.82 in series [2], 4.52 in [7] and 4.60 in [8]. For the same compound, the IC50 at 72 h in series [6] came to 50 µM.

On to `COc1ccc2[nH]cc(C(/C(=N\O)c3ccc(Br)cc3)c3c[nH]c4ccc(OC)cc34)c2c1`, for which the “Ratio IC50” value is recorded as 1.91 in series [1], <1 in [3] and <1 in [4]. The pIC50 in [2] was 5.03; in series [7], 4.65; in series [8], 4.74. Also, in [6], the IC50 at 72 h came to 17.7 µM.

Take `C/C(=N/Nc1ccc([N+](=O)[O-])cc1[N+](=O)[O-])C(c1c[nH]c2ccccc12)c1c[nH]c2ccccc12`: the “Ratio IC50” value in series [1] is listed as 1.45; in [3], <1; in [4], <1. For the same compound, the pIC50 in [2] was 5.26; in series [7], 4.85; in [8], 4.88. For the same compound, in series [6], the IC50 at 72 h worked out at 7.92 µM.

Regarding `O/N=C(/c1ccc(Br)cc1)C(c1c[nH]c2ccc(O)cc12)c1c[nH]c2ccc(O)cc12`, the entries for the “Ratio IC50” value in series [1], in series [3] and in series [4] were 1.4, 1.71 and 1.41, respectively. For the same compound, the pIC50 was 4.81 in series [2], 4.81 in [7] and 4.89 in series [8]. For the same compound, the IC50 at 72 h in [6] was 21.9 µM.

Take `COc1cc([C@@H]2c3cc4c(cc3[C@@H](O[C@@H]3O[C@@H]5CO[C@@H](C)O[C@H]5[C@H](O)[C@H]3O)[C@H]3COC(=O)[C@H]23)OCO4)cc(OC)c1O` [ETOPOSIDE]: the figures for the pIC50 in [2], in series [7] and in series [8] were 5.31, 5.74 and 5.96, respectively. For the same compound, the IC50 at 72 h in series [6] turned out to be 10.4 µM.
